Laboratory results from the NIST ThermoML archive (doi:10.1016/j.jct.2018.08.036).
“And” between values parts separate entries of the source, which are not always exact repeats. Equal entries are not always repeated. Numbers after ± are expanded uncertainties.

Key:
[1] = refractive index (Na D-line) (dimensionless); conditions: 100 kPa, Liquid, Standard Abbe refractometry
[2] = 100 kPa, Liquid; for speed of sound: Frequency=3 MHz, Single path-length method; for mass density: Vibrating tube method; for viscosity: Falling or rolling sphere viscometry
[3] = refractive index (Na D-line) (dimensionless); xn = mol fraction of the nth substance listed; conditions: 100 kPa, Liquid, Standard Abbe refractometry, x1 = 1
[4] = xn = mol fraction of the nth substance listed; conditions: 100 kPa, Liquid, x1 = 1; for viscosity: Falling or rolling sphere viscometry; for speed of sound: Frequency=3 MHz, Single path-length method; for mass density: Vibrating tube method

SMILES	refractive index ([1]; 293.15 K)	refractive index ([1]; 298.15 K)	refractive index ([1]; 308.15 K)	refractive index ([1]; 318.15 K)	refractive index ([1]; 323.15 K)	speed of sound ([2]; 293.15 K)	mass density ([2]; 293.15 K)	viscosity ([2]; 298.15 K)	speed of sound ([2]; 298.15 K)	mass density ([2]; 298.15 K)	viscosity ([2]; 308.15 K)	speed of sound ([2]; 308.15 K)	mass density ([2]; 308.15 K)	viscosity ([2]; 318.15 K)	speed of sound ([2]; 318.15 K)	mass density ([2]; 318.15 K)	speed of sound ([2]; 323.15 K)	mass density ([2]; 323.15 K)	refractive index ([1]; 303.15 K)	refractive index ([1]; 313.15 K)	also measured
CCC(C)c1ccccc1 (centres undefined) [(1-methylpropyl)benzene]	1.49 ± 0.0004	1.4876 ± 0.0004	1.4827 ± 0.0004	1.4778 ± 0.0004	1.4753 ± 0.0004	1333.8 ± 1 m/s	861.95 ± 0.42 kg/m3	0.912 ± 0.021 mPa·s	1313.8 ± 1 m/s	857.89 ± 0.42 kg/m3	0.796 ± 0.021 mPa·s	1274.5 ± 1 m/s	849.78 ± 0.42 kg/m3	0.707 ± 0.021 mPa·s	1235.7 ± 1 m/s	841.64 ± 0.42 kg/m3	1216.1 ± 1 m/s	837.48 ± 0.42 kg/m3			
CCCCCCCCCCCCCCCC [hexadecane]	1.4345 ± 0.0004	1.4324 ± 0.0004	1.4283 ± 0.0004	1.4241 ± 0.0004	1.422 ± 0.0004	1357.5 ± 1 m/s	773.33 ± 0.42 kg/m3	2.968 ± 0.064 mPa·s and 3.035 ± 0.065 mPa·s	1338.6 ± 1 m/s and 1338.5 ± 1 m/s	769.86 ± 0.42 kg/m3 and 769.81 ± 0.42 kg/m3	2.389 ± 0.063 mPa·s and 2.439 ± 0.063 mPa·s	1301.3 ± 1 m/s and 1301.2 ± 1 m/s	762.94 ± 0.42 kg/m3 and 762.89 ± 0.42 kg/m3	1.971 ± 0.062 mPa·s and 2.008 ± 0.062 mPa·s	1264.6 ± 1 m/s and 1264.7 ± 1 m/s	755.99 ± 0.42 kg/m3 and 755.98 ± 0.42 kg/m3	1246.6 ± 1 m/s	752.58 ± 0.42 kg/m3	1.4304 ± 0.0004	1.4261 ± 0.0004	viscosity ([2]; 293.15 K): 3.341 ± 0.065 mPa·s; viscosity ([2]; 303.15 K): 2.656 ± 0.064 mPa·s; speed of sound ([2]; 303.15 K): 1319.9 ± 1 m/s; mass density ([2]; 303.15 K): 766.4 ± 0.42 kg/m3; viscosity ([2]; 313.15 K): 2.164 ± 0.062 mPa·s; speed of sound ([2]; 313.15 K): 1282.9 ± 1 m/s; mass density ([2]; 313.15 K): 759.48 ± 0.42 kg/m3; viscosity ([2]; 323.15 K): 1.8 ± 0.062 mPa·s
CCCCCCCCCCCCCCCC [hexadecane] + CCC(C)c1ccccc1																					refractive index ([3]; 298.15 K): 1.4324 ± 0.0004; refractive index ([3]; 308.15 K): 1.4283 ± 0.0004; refractive index ([3]; 318.15 K): 1.4241 ± 0.0004; viscosity ([4]; 298.15 K): 3.035 ± 0.064 mPa·s; speed of sound ([4]; 298.15 K): 1338.5 ± 1 m/s; mass density ([4]; 298.15 K): 769.81 ± 0.42 kg/m3; viscosity ([4]; 308.15 K): 2.439 ± 0.063 mPa·s; speed of sound ([4]; 308.15 K): 1301.2 ± 1 m/s; mass density ([4]; 308.15 K): 762.89 ± 0.42 kg/m3; viscosity ([4]; 318.15 K): 2.008 ± 0.062 mPa·s; speed of sound ([4]; 318.15 K): 1264.7 ± 1 m/s; mass density ([4]; 318.15 K): 755.98 ± 0.42 kg/m3
CCCCCCCCCCCCCCCC [hexadecane] + CCCc1ccccc1																					refractive index ([3]; 298.15 K): 1.4324 ± 0.0004; refractive index ([3]; 308.15 K): 1.4283 ± 0.0004; refractive index ([3]; 318.15 K): 1.4241 ± 0.0004; viscosity ([4]; 298.15 K): 2.968 ± 0.064 mPa·s; speed of sound ([4]; 298.15 K): 1338.6 ± 1 m/s; mass density ([4]; 298.15 K): 769.86 ± 0.42 kg/m3; viscosity ([4]; 308.15 K): 2.389 ± 0.063 mPa·s; speed of sound ([4]; 308.15 K): 1301.3 ± 1 m/s; mass density ([4]; 308.15 K): 762.94 ± 0.42 kg/m3; viscosity ([4]; 318.15 K): 1.971 ± 0.062 mPa·s; speed of sound ([4]; 318.15 K): 1264.6 ± 1 m/s; mass density ([4]; 318.15 K): 755.99 ± 0.42 kg/m3
CCCc1ccccc1 [propylbenzene]	1.4921 ± 0.0004	1.4896 ± 0.0004	1.4844 ± 0.0004	1.4792 ± 0.0004	1.4766 ± 0.0004	1341.5 ± 0.6 m/s	862.72 ± 0.22 kg/m3	0.792 ± 0.021 mPa·s	1320.6 ± 0.6 m/s	858.45 ± 0.22 kg/m3	0.699 ± 0.021 mPa·s	1280.6 ± 0.6 m/s	850.01 ± 0.22 kg/m3	0.626 ± 0.021 mPa·s	1241 ± 0.6 m/s	841.53 ± 0.22 kg/m3	1221.5 ± 0.6 m/s	837.31 ± 0.22 kg/m3	1.487 ± 0.0004	1.4818 ± 0.0004	viscosity ([2]; 288.15 K): 0.924 ± 0.021 mPa·s; viscosity ([2]; 293.15 K): 0.846 ± 0.021 mPa·s; viscosity ([2]; 303.15 K): 0.742 ± 0.021 mPa·s; speed of sound ([2]; 303.15 K): 1300.4 ± 0.6 m/s; mass density ([2]; 303.15 K): 854.28 ± 0.22 kg/m3; viscosity ([2]; 313.15 K): 0.655 ± 0.021 mPa·s; speed of sound ([2]; 313.15 K): 1260.9 ± 0.6 m/s; mass density ([2]; 313.15 K): 845.81 ± 0.22 kg/m3; viscosity ([2]; 323.15 K): 0.601 ± 0.02 mPa·s
